We go through one molecule from US8822541B2, “Use of targeted nitroxide agents in mitigating or treating radiation injury” (University of Pittsburgh—Of the Commonwealth System of …, priority 2008, dated 2014).

Data set [1] has as its system 32D cl 3 cells. Nature of the data set: Clonogenic radiation survival curves of 32D cl 3 cells (PLDR study). Format: cell-based, mouse. Also noted: key to D0: D0 in Gy, from single-hit multitarget model. Here is the method: 32D cl 3 cells were resuspended at 1×10^5 cells/mL in 10×100-mm tubes and divided into three groups: radiation only, post-irradiation treatment with 10 μM JP4-039, and post-irradiation treatment with 10 μM TEMPO. Cells were irradiated to doses ranging from 0 to 8 Gy and were plated immediately after irradiation.
32D cl 3 cells were resuspended at 5×10^5 cells/mL in 10×100-mm tubes and divided into three groups: radiation only, post-irradiation treatment with 10 μM JP4-039, and post-irradiation treatment with 10 μM TEMPO. Cells were irradiated to doses ranging from 0 to 8 Gy and were then incubated in exponentially growing colonies (flasks) for 24, 48 and 72 h in a high-humidity incubator at 37° C. with 95% air/5% CO2.
32D cl 3 cells were resuspended at 5×10^5 cells/mL in 10×100-mm tubes. Cells were irradiated to doses ranging from 0 to 8 Gy and were then centrifuged at 1500 RPM for 10 minutes and incubated in vertical tubes held tight in pellets with a total of 5×10^5 cells/pellet for 24, 48 and 72 h in a high-humidity incubator at 37° C. with 95% air/5% CO2.
Cells incubated under either logarithmic or PLDR conditions were resuspended at 24, 48 and 72 h after irradiation, and cell viability was assessed using an automated cell viability counter (Beckman Coulter, Fullerton, Calif.). Subsequently, at 24, 48, 72 h, cells in pellets and flasks were resuspended and treated with 10 μM JP4-039, 10 μM TEMPO, or no treatment and were plated in triplicate in semisolid methylcellulose-containing medium at viable cell concentrations ranging from 500-40,000 cells/mL. Cells were incubated in a high-humidity incubator at 37° C. with 95% air/5% CO2 for 7 d and colonies of greater than 50 cells were scored according to published methods (Epperly M W, Gretton J E, Sikora C A, Jefferson M, Bernarding M, Nie S, et al.: Mitochondrial localization of superoxide, dismutase is required for decreasing radiation-induced cellular damage. Radiat Res. 160: 568-578, 2003).
Data from radiation survival curves were analyzed using the linear-quadratic and single-hit, multitarget models (Epperly M, et al., Prevention of late effects of irradiation lung damage by manganese superoxide dismutase gene therapy. Gene Ther. 5: 196-208, 1998). Results are presented as the mean±standard error of the mean from at least three measurements. Student's t test and two-way ANOVA were used to compare means of different groups where appropriate.

Data set [2] relates to 32D cl 3 cells. Nature of the data set: EPR-based analysis of nitroxide distribution and partitioning in subcellular fractions. The format is cell-based, mouse. Conditions: flask or pelleted, 10 μM, 1 h. Here is the method: To determine nitroxide partitioning and distribution in subcellular compartments, electron paramagnetic resonance (EPR) was utilized. 32D cl 3 cells were incubated for 24 h under pelleted or flask growth conditions. After incubation, 150×10^6 cells were resuspended at a concentration of 10×10^6 cells/mL and were treated with 10 μM JP4-039 or 10 μM TEMPO for 1 h (Wipf P, et al., Mitochondrial targeting of selective electron scavengers: synthesis and biological analysis of hemigramicidin-TEMPO conjugates. J Am Chem. Soc. 127: 12460-12461, 2005).
Subcellular compartments were isolated by differential centrifugation. Cells were centrifuged at 1500 RPM for 10 min and the supernatant (media) was removed. The remaining whole cell pellet was washed with cold PBS, resuspended in 0.3 mL of hypotonic buffer solution, and incubated on ice for 45 min. Cells were then lysed by three rapid freeze-thaw cycles in liquid nitrogen for 30 sec and water at 25° C. for 3 min. Lysed cells were centrifuged at 3000×g for 5 min to isolate nucleus and cellular debris. Supernatant was centrifuged at 12000×g for 45 min to isolate mitochondria from cytoplasm (Wipf P, et al., Mitochondrial targeting of selective electron scavengers: synthesis and biological analysis of hemigramicidin-TEMPO conjugates. J Am Chem. Soc. 127: 12460-12461, 2005).
Each cellular fraction (media, whole cell pellet, nucleus/cellular debris, mitochondria, and cytoplasm) was mixed with DMSO (1:1 vol/vol) and 2 mM of potassium ferricyanide (K3Fe(CN)6) to convert […] to EPR-detectable radical forms (Behringer W, et al., Antioxidant Tempol enhances hypothermic cerebral preservation during prolonged cardiac arrest in dogs. J Cereb Blood Flow Metab. 22: 105-117, 2002). 70 μL of the homogenate was loaded into Teflon tubing (0.8 mm internal diameter) (Alpha Wire Corp., Elizabeth, N.J.) which was folded in half and placed into an open ESR quartz tube (inner diameter of 3.0 mm). EPR measurements were made in triplicate using a JEOL-RE1X EPR spectrometer (Jeol, Tokyo, Japan) under the following conditions: 334.7 mT center field, 5 mT sweep width, 0.079 mT field modulation, 20 mW microwave power, 0.1 sec time constant, and 2 min scan time at 22.5° C. Utilizing signal magnitude and isolated volumes, amount and concentration of JP4-039 or TEMPO were calculated for each sample.

Another data set concerns Ercc1−/Δ mice. Conditions: parental compound, comparison statement; cited from earlier work.
[3] abbreviates: 0 hours, 10 μM post-irradiation.

Each structure is given as a SMILES string.

With `CC1(C)CCCC(C)(C)N1[O]` [TEMPO, 2,2,6,6-tetramethylpiperidine-N-oxyl, reference compound], the D0 is 1.04 ± 0.07 with 32D cl 3 cells [1] (setting [3]); 1.26 ± 0.11 with 32D cl 3 cells [1] (24 hours (Flask), 10 μM); 1.13 ± 0.19 in the data set on 32D cl 3 cells [1] (24 hours (Pellet), 10 μM). Besides, the Ñ with 32D cl 3 cells [1] (setting [3]) was 8.23±4.35; with 32D cl 3 cells [1] (24 hours (Flask), 10 μM), 8.86 ± 6.69; in the data set with 32D cl 3 cells [1] (24 hours (Pellet), 10 μM) it was 7.59±1.71. Besides, in the data set on 32D cl 3 cells [1] (48 or 72 h after irradiation), the radiation mitigation result was “no statistically significant radiation mitigation”. Further, the “nitroxide signal in whole cell pellet and subcellular fractions” value in the data set on 32D cl 3 cells [2] is on record as “below the detectable threshold”. The body weight entry in the data set on Ercc1−/Δ mice is given as “cause weight loss”.
